The assay has as its target Serine/threonine-protein kinase PAK 5 (Homo sapiens) (UniProt Q9P286). Put plainly: PAK5 binders by thermal shift, biophysical, DSF, SYPRO orange, recombinant protein (AID 390). To be noted: at 10 µM, hits give high values.
Chain of Serine/threonine-protein kinase PAK 5 (Homo sapiens) (Q9P286 whole entry, looked up): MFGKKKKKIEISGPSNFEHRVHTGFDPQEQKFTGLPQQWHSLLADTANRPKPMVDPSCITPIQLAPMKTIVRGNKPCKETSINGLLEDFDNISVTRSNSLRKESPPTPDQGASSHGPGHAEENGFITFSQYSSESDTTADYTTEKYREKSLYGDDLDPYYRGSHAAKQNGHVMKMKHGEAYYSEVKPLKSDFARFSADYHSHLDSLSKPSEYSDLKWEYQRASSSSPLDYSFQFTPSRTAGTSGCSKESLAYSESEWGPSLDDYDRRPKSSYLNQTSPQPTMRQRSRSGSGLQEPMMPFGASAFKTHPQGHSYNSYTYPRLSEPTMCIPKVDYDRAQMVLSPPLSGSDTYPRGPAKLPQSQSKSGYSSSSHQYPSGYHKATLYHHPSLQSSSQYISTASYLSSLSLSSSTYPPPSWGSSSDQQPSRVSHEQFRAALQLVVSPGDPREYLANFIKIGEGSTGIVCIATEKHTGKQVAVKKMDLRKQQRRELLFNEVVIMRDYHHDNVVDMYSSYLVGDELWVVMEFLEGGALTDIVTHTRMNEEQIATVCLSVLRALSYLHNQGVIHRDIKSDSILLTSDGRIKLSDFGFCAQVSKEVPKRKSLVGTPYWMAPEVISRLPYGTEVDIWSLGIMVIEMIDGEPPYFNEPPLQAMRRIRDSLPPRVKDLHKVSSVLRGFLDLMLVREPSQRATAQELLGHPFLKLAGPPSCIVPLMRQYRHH
Consider `CC(C)c1nn(-c2c(Cl)cccc2Cl)c2nc(Cc3ccc(OCCO)cc3)[nH]c(=O)c12`, for which the Tm shift is 3.1 Celsius.
Turning to `Nc1nc(Nc2ccc(S(N)(=O)=O)cc2)nn1C(=S)Nc1c(F)cccc1F`, the Tm shift is 5.57 Celsius.
`CCN(CC)CCNC(=O)c1c(C)[nH]c(/C=C2\C(=O)Nc3ccc(Cl)cc32)c1C`: the Tm shift was 4.47 Celsius.
With `CC(=O)n1c(C2=c3ccccc3=NC2=O)c(O)[nH]c1=S` the figure was 3.1 Celsius.
Next, `NS(=O)(=O)c1ccc(Nc2nc(OCC3CCCCC3)c3[nH]cnc3n2)cc1`: 3.3 Celsius; `CC(O)(O)C1(O)C[C@@H]2O[C@@]1(C)n1c3ccccc3c3c4c(c5c6ccccc6n2c5c31)C(=O)NC4` (stereo not given in full): 5.05 Celsius; `O=C1Cc2c([nH]c3ccc(N(O)O)cc23)-c2ccccc2N1`: 3.9 Celsius.
With `CC(C)C(CO)Nc1nc(Nc2cccc(Cl)c2)c2ncn(C(C)C)c2n1` (stereo not given) the figure was 4.5 Celsius; with `O=Nc1c(-c2c(O)[nH]c3cc(Br)ccc23)[nH]c2ccccc12`, 4.6 Celsius.
Regarding `CCn1cnc2c(Nc3cccc(Cl)c3)nc(N[C@@H]3CCCC[C@@H]3N)nc21`, the Tm shift is 6.75 Celsius.
Take `Cc1cc(Nc2nc(-c3ccccc3)nc3ccccc23)n[nH]1`: the Tm shift was 4.73 Celsius.
Next, `O=C1NCc2c1c1c3ccccc3[nH]c1c1[nH]c3ccccc3c21`: 4.4 Celsius; `O=C1Cc2c([nH]c3ccc(Br)cc23)-c2ccccc2N1`: 3.5 Celsius; `NC(=O)c1ccc(-c2nc(-c3ccc4c(c3)OCCO4)c(-c3ccccn3)[nH]2)cc1`: 4.1 Celsius.
With `Cn1cc(/C=C2\C(=O)Nc3ccc(S(N)(=O)=O)cc32)c2ccccc21` the figure was 4.3 Celsius; with `N#CCCc1ccc2c(c1)-c1[nH]c3ccc(-n4oo4)cc3c1CC(=O)N2`, 4.05 Celsius; with `NCCNc1ncc(C(N)=O)c(Nc2cccc(C(F)(F)F)c2)n1`, 5.9 Celsius.
Consider `O=C1NC(=O)c2c1c1c3ccccc3n3c1c1c2c2ccccc2n1[C@@H]1CCC3O1`, for which the Tm shift is 3.69 Celsius.
With `O=Nc1c(-c2c(O)[nH]c3ccccc23)[nH]c2ccccc12` the figure was 4.2 Celsius; with `OCC(O)CCO/N=C1/C(c2c(O)[nH]c3ccccc23)=Nc2ccccc21` (stereo not given), 3.37 Celsius.

(Values after PubChem BioAssay AID390 (SGCOxCompounds, 2006).)
